# Reference: patent US6770635B1, “Method for medicating the inflammatory controlling system and adverse inflammatory reactions and for making compounds for treating the pathology of adverse inflammatory reactions” (Pharos Pharmaceuticals, priority 1995, dated 2004)
# How the values were obtained:
# [1] = stability of BD2K1 in water (deuterium oxide), 500 MHz NMR; assay type: physicochemical; conditions: for After One Week (share of ingredient in the solution by NMR) / Initially % (share of ingredient in the solution by NMR): BD2K1 in deuterium oxide, room temperature about 27° C.
# Experimental: A sample of BD2K1 made according to Example 1. Five mcg of the sample was dissolved in one ml of deuterium oxide and the solution was stored in a tightly capped screw capped tube maintained at room temperature which is about 27° C. Deuterium was used as the water source because it facilitates the NMR determinations of chemical configuration. The solution sample was scanned by 500 MHz NMR initially and after one week.
# [2] = stabilizing effect of glucose added to BD2K1-deuterium oxide mixtures, NMR; assay type: physicochemical; conditions: for percent of total composition in the stationary equilibrium: 95% BD2K1 sample in water without glucose, one week; for level at which di-β-glucosamine equilibrates: 20% or more glucose in the mixture, in water, first week
# Experimental: This experiment measures the stabilizing effect of glucose when added to the BD2K1 -deuterium oxide mixtures at room temperature. Various amounts of α-D-glucose were added to the similar starting mixtures in Example 3 and the NMRs were recorded to determine the percent changes of the total composition as a function of time.
# [3] = system: mice immunologically sensitive to a specific water soluble chemical; experiment: Inflammatory Controlling System (ICS) assay; assay type: in vivo
# Experimental: An example of BD2K1 being synthesized in another area than in the intestine is seen in a mouse study which was conducted involving the Inflammatory Controlling System (ICS). ICS assay is done in mice immunologically sensitive to a specific water soluble chemical. When these mice are challenged intravenously with a sublethal dose of the chemical, below the toxicity level for non-sensitive mice, they immediately respond with an adverse immune reaction. Result is an acute pancreatitis, shock and death. […] The assay involves glucose controls which are administrated intraperitoneally at three times. The first is early (i.e., 3 hours) before the antigen challenge. The second is one hour before the challenge and the third is at zero hour (i.e., when the challenge is done). […] However, for the case where glucose was injected at the zero hour and one hour before the challenge there was no effect.
# A further study in mice was conducted to test the effect of glucose in mice by various routes of administration in the ICS assay test. The glucose was administrated by four different routes: intraperitoneal, intravenous, subcutaneous and oral.
# [4] = general statements on stability at alkaline pH and in body fluids; assay type: physicochemical
# [5] = tolerability statements for BD2K (topical, parenteral use); assay type: in vivo
# [6] = storage of BD2K1 in a desiccated container; assay type: physicochemical; conditions: room temperature
Compound,After One Week (share of ingredient in the solution by NMR) [1],Initially % (share of ingredient in the solution by NMR) [1],percent of total composition in the stationary equilibrium [2],reduction of BD2K1 to the starting material glucose ([1]; by adding water),protection against the acute pancreatitis ([3]; BD2K1 controls of the route study),"protection from death on challenge ([3]; sensitive mice, intravenous sublethal antigen challenge)",stability in body fluids ([4]; body fluids),stability at high alkaline pH ([4]; high alkaline pH),irritation ([5]; applied topically),IgE levels in patient sera ([5]; patient sera),toxicity ([5]; used parentally),decomposition on storage [6],level at which di-β-glucosamine equilibrates [2],level at which di-β-glucosamine equilibrates ([2]; listed as di-β-glucosamine),"time the equilibrium level is kept ([2]; 20% or more glucose, sealed container)"
c1cnccn1 [pyrazine],1%,1%,less than 1%,–,–,–,–,–,–,–,–,–,–,–,–
"OC[C@H]1O[C@@H](N[C@@H]2O[C@H](CO)[C@@H](O)[C@H](O)[C@H]2O)[C@H](O)[C@@H](O)[C@@H]1O [BD2K1, di-Beta-D-glucopyranosylamine]",62%,92%,62%,33%,good protection,protects these sensitive mice from death,not very stable,extremely stable,without any irritation,without elevating IgE levels,no indication of toxicity,does not decompose,80%,about 80%,at least five years
OC[C@H]1O[C@@H](O)[C@H](O)[C@@H](O)[C@@H]1O [β-glucose],18%,0%,–,–,–,–,–,–,–,–,–,–,–,–,–
OC[C@H]1O[C@H](O)[C@H](O)[C@@H](O)[C@@H]1O [α-glucose],10%,0%,–,–,–,–,–,–,–,–,–,–,–,–,–
